Where two headings read alike, the source gives them in different places.
How the values were obtained:
[1] = Pharmacokinetics (PK) of the compound in rats; format: in vivo; details: rat, plasma, SD rats; for bioavailability / AUC(0-t) / clearance / Vd / half-life: n = 3; for bioavailability: read-out: F (absolute bioavailability); for clearance: read-out: Cl_obs iv (clearance) (converted); for Vd: read-out: Vz_obs iv (apparent volume of distribution); for Tmax: n = 3, median, read-out: Tmax po (time to maximum plasma concentration)
Method: Experimental Example 3: Pharmacokinetics (PK) of the Compound in Rats
The test compound was dissolved in a mixture of 5% v/v DMSO+20% v/v (30% v/v solutol (polyethylene glycol-15 hydroxystearate purchased from BASF, batch no. 84773247G0))+75% v/v brine to prepare a solution, which was then administered to SD rats by oral gavage at a dose of 5.0 mg/kg. Blood samples were collected at 15 min, 30 min, 1 h, 2 h, 4 h, 6 h, 8 h and 24 h.
The test compound was dissolved in a mixture of 5% v/v DMSO+20% v/v (30% v/v solutol)+75% v/v brine to prepare a solution, which was administered to SD rats by intravenous bolus at a dose of 1 mg/kg. Blood samples were collected at 5 min, 15 min, 30 min, 1 h, 2 h, 4 h, 6 h, 8 h and 24 h.
The animals were fixed, with tails warmed in a water bath 10 min before each sampling time point. About 100 μL of blood was collected via the tail vein, and the blood samples were collected in anticoagulation tubes containing EDTA-K2. The blood samples were centrifuged at 8,000 rpm for 6 min at 4° C. to give plasma samples within 30 min after collection. The plasma samples were stored in a refrigerator at −80° C. before test.
The sample was taken out from the −80° C. refrigerator, and vortexed for 5 min after naturally thawed at room temperature. 20 μL of plasma sample was pipetted into a 1.5 mL centrifuge tube, and 200 μL of 100 ng/mL internal standard working solution (a solution of tolbutamide in methanol) was added. The resulting mixture was mixed, vortexed for 5 min, and then centrifuged at 12,000 rpm for 5 min. 50 μL of the supernatant was pipetted into a 96-well plate with 150 μL of water per well, and the plate was vortexed for 5 min before LC-MS/MS analysis.
The concentration was calculated by Analyst 1.6.3 from AB Sciex. Parameters such as mean, standard deviation and coefficient of variation (excluding those output directly by Analyst 1.6.3) were calculated by Microsoft Excel. PK parameters were calculated by Pharsight Phoenix 6.1 software NCA (Tmax was in median).

[2] = biological target: T1, Peptidylarginine deiminase 4 (PAD4) (Homo sapiens, UniProt Q9UM07); assay: Assay of enzyme-inhibiting activity (PAD4, FAM-AcH4(1-5) peptide, Caliper detection); format: biochemical; details: 10 nM PAD4, 5 μM peptide, 0.1 mM Ca2+, pH 8.0
T1 construct: purchased Cayman 10500
Method: Experimental Example 1: Assay of Enzyme-Inhibiting Activity of Compound
Sample: The compound disclosed herein prepared according to exemplary methods.
Peptidylarginine deiminase 4 (PAD4): Cayman, Cat. No. 10500, Lot. No. 0519694;
Carboxyfluorescein-labeled peptide (Peptide FAM-AcH4 (1-5)): GL Biochem, Cat. No. 0200046, Lot. No. P161110-TL545976;
An appropriate amount of the compound to be assayed was dissolved in DMSO to 10 mM. An appropriate amount of 10 mM mother liquor of the compound to be assayed was diluted to 1.5 mM with DMSO, and the solution was then serially diluted 3-fold with DMSO to give 50× concentrations of gradient compound solutions. Finally, 10-fold dilution was carried out with reaction buffer (an aqueous solution of 100 mM HEPES (2-[4-(2-hydroxyethyl)piperazin-1-yl]ethanesulfonic acid) containing 0.01% v/v Triton, pH 8.0) to give 5× concentrations of gradient compound solutions (150 μM, 50 μM, 16.667 μM, 5.556 μM, 1.852 μM, 0.617 μM, 0.206 μM, 0.069 μM, 0.023 μM, and 0.008 μM).
1) Reaction buffer: aqueous solution of 100 mM HEPES (2-[4-(2-hydroxyethyl)piperazin-1-yl]ethanesulfonic acid) containing 0.01% v/v Triton, pH 8.0;
2) Stop solution: aqueous solution of 100 mM HEPES (2-[4-(2-hydroxyethyl)piperazin-1-yl]ethanesulfonic acid) containing 0.015% w/v Brij-35, 0.2% v/v Coating Reagent (coating solution) #3 (PE, part no. 760050) and 50 mM EDTA, pH 8.0;
3) 2.5× enzyme solution: An appropriate amount of PAD4 was diluted to 2.5× (final concentration: 10 nM) with reaction buffer;
4) 2.5× polypeptide solution: An appropriate amount of carboxyfluorescein -labeled peptide (FAM-AcH4(1-5) peptide) and CaCl2) solution was diluted to 2.5× (the final concentration of polypeptide: 5 μM, the final concentration of Ca^2+: 0.1 mM) with reaction buffer.
5 μL of 5× compound solutions or solvents with different concentrations were added to a 384-well plate, 10 μL of 2.5× enzyme solution was then added, and the plate was incubated at room temperature for 10 min. 10 μL of 2.5× polypeptide solution was then added to each well, and the plate was incubated at 28° C. for a certain period of time. 25 μL of stop solution was added to stop reaction. Caliper was used for detection. The inhibition rate was calculated according to the following formula:
Inhibition percentage=(max−transformation)/(max−min)*100.
“max” denotes DMSO control; and “min” denotes low control.

[3] = IV 1 mg/kg, read-out: AUClast iv (area under concentration-time curve 0-24 h)
[4] = IV 1 mg/kg, read-out: tz1/2 iv (terminal half-life) (converted)
[5] = PO 5 mg/kg, read-out: AUClast po (area under concentration-time curve 0-24 h)
[6] = PO 5 mg/kg, read-out: tz1/2 po (terminal half-life) (converted)

T1 sequence (Q9UM07 whole entry): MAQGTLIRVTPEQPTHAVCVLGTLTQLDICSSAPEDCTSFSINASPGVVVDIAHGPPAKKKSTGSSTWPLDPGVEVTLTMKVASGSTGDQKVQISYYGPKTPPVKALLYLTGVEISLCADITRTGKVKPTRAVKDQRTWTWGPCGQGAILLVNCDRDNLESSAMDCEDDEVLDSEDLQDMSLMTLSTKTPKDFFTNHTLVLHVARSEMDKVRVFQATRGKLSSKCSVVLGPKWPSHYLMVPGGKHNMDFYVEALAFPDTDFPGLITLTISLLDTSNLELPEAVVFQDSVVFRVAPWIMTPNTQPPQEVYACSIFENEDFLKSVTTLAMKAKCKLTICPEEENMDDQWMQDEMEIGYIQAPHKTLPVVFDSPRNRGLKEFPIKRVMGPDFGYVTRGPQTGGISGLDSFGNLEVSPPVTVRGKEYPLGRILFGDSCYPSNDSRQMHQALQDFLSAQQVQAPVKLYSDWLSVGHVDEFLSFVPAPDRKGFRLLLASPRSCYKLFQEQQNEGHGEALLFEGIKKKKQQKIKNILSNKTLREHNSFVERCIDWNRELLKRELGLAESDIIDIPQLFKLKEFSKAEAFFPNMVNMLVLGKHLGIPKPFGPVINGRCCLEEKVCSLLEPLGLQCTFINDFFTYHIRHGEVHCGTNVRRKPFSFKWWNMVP

| bioavailability ([1]; IV 1 mg/kg, PO 5 mg/kg) [%] | AUC(0-t) [1, 3] [ng·h/mL] | clearance ([1]; IV 1 mg/kg) [mL/min/kg] | Vd ([1]; IV 1 mg/kg) [L/kg] | half-life [1, 4] [h] | Tmax ([1]; PO 5 mg/kg) [h] | AUC(0-t) [1, 5] [ng·h/mL] | half-life [1, 6] [h] | IC50 [2] [µM] | Compound |
| --- | --- | --- | --- | --- | --- | --- | --- | --- | --- |
| 35 | 7680 | 1.67 | 1.76 | 14.6 | 6 | 13500 | 12 | 0.04 | COc1cc(C(=O)N2CCC[C@@H](N)C2)cc2nc(-c3cc4ccsc4n3CC3CCC3)n(C)c12 [Compound 22, (R)-(3-aminopiperidin-1-yl)(2-(6-(cyclobutylmethyl)-6H-thieno[2,3-b]pyrrol-5-yl)-7-methoxy-1-methyl-1H-benzo[d]imidazol-5-yl)methanone] |
| 71.2 | 3160 | 5 | 2.86 | 6.94 | 8 | 11200 | 13.2 | 0.058 | COc1cc(C(=O)N2CCC[C@@H](N)C2)cc2nc(-c3cc4ccsc4n3CC(C)C)n(C)c12 [Compound 20, (R)-(3-aminopiperidin-1-yl)(2-(6-isobutyl-6H-thieno[2,3-b]pyrrol-5-yl)-7-methoxy-1-methyl-1H-benzo[d]imidazol-5-yl)methanone] |
| 15.6 | 1200 | 13.2 | 11.2 | 9.97 | 6 | 934 | – | 0.2 | CCn1c(-c2nc3cc(C(=O)N4CCC[C@@H](N)C4)cc(OC)c3n2C)cc2ccsc21 [Compound 3, (R)-(3-aminopiperidin-1-yl)(2-(6-ethyl-6H-thieno[2,3-b]pyrrol-5-yl)-7-methoxy-1-methyl-1H-benzo[d]imidazol-5-yl)methanone] |
| 31.2 | 887 | 18 | 11.6 | 7.9 | 6 | 1380 | 7.52 | 0.025 | COc1cc(C(=O)N2CCC[C@@H](N)C2)cc2nc(-c3cc4cc(C)sc4n3CC3CC3)n(C)c12 [Compound 23, (R)-(3-aminopiperidin-1-yl)(2-(6-(cyclopropylmethyl)-2-methyl-6H-thieno[2,3-b]pyrrol-5-yl)-7-methoxy-1-methyl-1H-benzo[d]imidazol-5-yl)methanone] |
| 46.6 | 1010 | 16.7 | 5.64 | 3.92 | 6 | 2360 | 3.96 | 0.036 | COc1cc(C(=O)N2CCC[C@@H](N)C2)cc2nc(-c3cc4ccsc4n3CC3CC3)n(C)c12 [Compound 18, (R)-(3-aminopiperidin-1-yl)(2-(6-(cyclopropylmethyl)-6H-thieno[2,3-b]pyrrol-5-yl)-7-methoxy-1-methyl-1H-benzo[d]imidazol-5-yl)methanone] |
| 41.8 | 303 | 43.7 | 22 | 5.96 | 6 | 633 | 6.33 | 0.11 | CCn1c(-c2nc3cc(C(=O)N4CCC[C@@H](N)C4)cc(OC)c3n2C)cc2cc(C)sc21 [Compound 9, (R)-(3-aminopiperidin-1-yl)(2-(6-ethyl-2-methyl-6H-thieno[2,3-b]pyrrol-5-yl)-7-methoxy-1-methyl-1H-benzo[d]imidazol-5-yl)methanone] |
| 33.3 | 772 | 15.3 | 8.73 | 6.93 | 8 | 1290 | 4.7 | 0.055 | COc1cc(C(=O)N2CCC[C@@H](N)C2)cc2nc(-c3cc4ccsc4n3CC(F)(F)F)n(C)c12 [Compound 21, (R)-(3-aminopiperidin-1-yl)(7-methoxy-1-methyl-2-(6-(2,2,2-trifluoroethyl)-6H-thieno[2,3-b]pyrrol-5-yl)-1H-benzo[d]imidazol-5-yl)methanone] |

From patent US20200407370A1, “PEPTIDYLARGININE DEIMINASE INHIBITOR AND USE THEREOF” (Nanjing Transthera Biosciences Co., Ltd., priority 2018, published 2020)
